For this assay, the target named is T1, Human recombinant sPLA2-V (Homo sapiens, UniProt P39877).
T1 sequence (P39877 21-138): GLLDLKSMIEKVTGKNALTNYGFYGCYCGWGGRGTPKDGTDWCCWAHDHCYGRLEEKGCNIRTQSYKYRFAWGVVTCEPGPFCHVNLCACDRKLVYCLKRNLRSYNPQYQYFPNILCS
Put plainly: sPLA2-V activity assay.

For `C[C@@H]1C[C@H]2[C@@H]3CCC4=CC(=O)C=C[C@]4(C)[C@@]3(F)[C@@H](O)C[C@]2(C)[C@@]1(O)C(=O)CO` [Dexamethasone], the IC50 is 650 ± 150 nM.

What is called IC50 is the point on the concentration scale where inhibition reaches its midpoint.

The record behind these values is publication PMC4172049 (Drug Design, Development and Therapy, 2014).
